Like-named read-outs stand apart in the source and are kept apart here.
Columns and labels:
A549 cells = test: Mitochondrial ROS (MitoSOX Red); type: cell-based, human; settings: A549, 1 µM plus UV irradiation, vs DMSO and 1M alone
Experimental: For measuring mitochondrial ROS, A549 cells were treated with 1 μM of the respective compound and incubated for 90 min (37 °C, 5% CO2), allowing the compound to enter to cells. Mitochondrial superoxide production was assessed with MitoSOX Red reagent (Thermo Fisher Scientific, Waltham, MA). The cells were washed with PBS and trypsinized, and then kept on ice unless otherwise specified. Cells were distributed into small tubes (3 × 10^5 cells per tube) and resuspended in 5 µM MitoSOX solution prepared in PBS. The cells were incubated on a thermomixer for 30 min at 37 °C, with shaking (300 rpm), in the dark, followed by two washes with PBS. Then, cells dyed with MitoSOX were re-suspended in 400 µL of PBS and distributed into black 96-well plates, 120 µL per well (in triplicate). A Tecan Infinite 200 fluorescence microplate reader with 485/520 and 520/590 nm excitation/emission wavelengths was used to measure MitoSOX fluorescence.

ct-DNA = system: ct-DNA; parameters: method as in PMID 33231335; settings: I = 50 mM, cited from earlier work
[1] = system: poly dAdT-poly dAdT (AT-DNA, p(dAdT)2) (DNA, polymer) AT; test: UV thermal denaturation at 260 nm; settings: Na+ (sodium cacodylate, I = 50 mM); pH 7.0; r = [compound]/[polynucleotide] = 0.2; error ± 0.5 °C; per base
[2] = pKa from pH dependence of UV/vis spectrum; type: physicochemical; settings: water (0.001 M HCl in miliQ water, titrated with NaOH), UV/vis spectra vs pH in water, c = 2.0 × 10^−5 M
Solubility in water = type: physicochemical

## C[n+]1ccc(-c2cc3ccc4cccc5ccc(c2)c3c45)cc1 [1M, 2-para-N-methylpyridinium pyrene]
A549 cells
  mtROS levels (MitoSOX Red): significantly increased mtROS levels
ct-DNA; r = 0.2, pH 7.0, sodium cacodylate buffer
  ∆Tm ct-DNA: ^c 2 °C
ct-DNA; r = 0.3, pH 7.0, sodium cacodylate buffer
  ∆Tm ct-DNA: ^c 2 °C
[1]
  ∆Tm: 8 °C

## C[n+]1ccc(-c2cc3ccc4cc(-c5cc[n+](C)cc5)cc5ccc(c2)c3c45)cc1 [2M]
[1]
  ∆Tm: 31 °C

## c1cc2ccc3cc(-c4ccncc4)cc4ccc(c1)c2c34 [compound 1]
[2]
  pKa: ~5
Solubility in water
  Solubility in water: poorly soluble in water

Source: article PMC9696974 (Pharmaceutics, 2022)
